Laboratory results: patent publication US20180196033A1, “CELL TRACKING REAGENTS AND THEIR METHODS OF USE” (LIFE TECHNOLOGIES CORPORATION, priority 2015, published 2018)
Where “and” joins values, the source holds several entries; their conditions need not be identical. Identical values can stand only once.

Test system: Human peripheral blood mononuclear cells (PBMCs)
Assay: Generational tracking of cell proliferation by dye dilution, flow cytometry
Type: cell-based
Conditions: PBMCs stained with 10 mM stock at 1 μL per mL of cells, 20 min; stimulated with Interleukin-2 and CD3/CD28 DYNABEADS; 355 nm laser, 450/50 bandpass emission filter
Description: 20 mL whole blood were added to 20 mL DPBS and mixed well. 15 mL FICOLL-PAQUE® PLUS (GE Healthcare) were added to each of two 50 mL centrifuge tubes. 20 mL of the diluted whole blood was carefully layered on top. The tube containing the whole blood was centrifuged for 30 min at 400×g and the peripheral blood mononuclear cell (PBMC) layer was carefully removed. The cells were resuspended in 25 mL DPBS in a 50 mL centrifuge tube and centrifuged for 5 min at 400×g. The supernatant was decanted and the cells were resuspended in 10 mL DPBS. Cells were counted on a COUNTESS Automated Cell Counter (Thermo Fisher Scientific) with the concentration adjusted to 1×10^6 cells/mL in DPBS.
20 μL anhydrous DMSO was added to a vial of dry Compound 1 (64 μg) at room temperature. 1 mL of unstained cells was reserved as a control. Cells were labeled with 1 μL of 10 mM Compound 1, per milliliter of cell suspension. The tubes were immediately vortexed for 30 sec and the cells were incubated for 20 min at room temperature, protected from light. […]
2 mL of each sample were removed by first mixing sample with a pipet then transferring them to their own tubes. […] Cells were counted on a COUNTESS Automated Cell Counter with the concentration adjusted to 1×10^6 cells/mL in DPBS. […]

For `COc1ccc2cc(C(=O)ON3C(=O)CCC3=O)c(=O)oc2c1` [Compound 1], the “time over which cell proliferation was followed (discrete peaks of successive generations of live, CD4 positive cells)” value was 7 days and 6 days.
